Test results reported in US10981900B2, “Spiro compound and use thereof” (MEDSHINE DISCOVERY INC., priority 2017, dated 2021).
Like-named read-outs stand apart in the source and are kept apart here.

Key:
S1P1 receptor = molecular target: T1, S1P1 receptor (Homo sapiens, UniProt P21453); experiment: S1P1 receptor agonistic activity assay (PathHunter cell strain, chemiluminescent signal detection); type: cell-based; details: PathHunter cells, agonist mode, 37° C. for 90-180 minutes
T1 construct: expressed in transfected cells
T1 sequence (P21453 whole entry): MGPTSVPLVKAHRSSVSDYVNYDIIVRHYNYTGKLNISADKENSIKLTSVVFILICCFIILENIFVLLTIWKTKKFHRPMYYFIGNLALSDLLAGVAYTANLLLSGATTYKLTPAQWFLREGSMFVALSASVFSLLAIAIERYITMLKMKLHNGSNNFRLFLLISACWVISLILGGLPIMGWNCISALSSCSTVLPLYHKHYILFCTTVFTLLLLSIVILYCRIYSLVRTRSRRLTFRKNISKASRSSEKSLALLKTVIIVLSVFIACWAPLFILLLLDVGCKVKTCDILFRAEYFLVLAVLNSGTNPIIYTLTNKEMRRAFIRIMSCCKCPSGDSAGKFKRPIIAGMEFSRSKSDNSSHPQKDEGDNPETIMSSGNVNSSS
Experimental: 1. A PathHunter cell strain was thawed according to standard procedures;
2. The cell was seeded in 20 μl 384-well microplates and incubated at 37° C. for an appropriate time.
1. For an agonist assay, the cell was incubated with the sample to be tested to initiate a reaction;
2. The stock to be tested is diluted 5 folds to be a buffer solution;
3. The 5-fold diluted solution (5 μL) was added to the cells and incubated at 37° C. for 90-180 minutes. The solvent concentration was 1%.
1. 12.5 μL or 15 μL of PathHunter detection reagent (50 vol. %) was added in one portion and then incubated for 1 hour at room temperature to generate a detection signal;
2. The microplate was read using a PerkinElmer Envision™ instrument for chemiluminescent signal detection.
1. Compound activity analysis was performed using a CBIS Data Analysis Kit;
2. Calculation formula: % activity=100%×(average RLU of sample to be test-average RLU of solvents)/(average maximum control ligand−average RLU of solvents)

[1] = Evaluation of compounds' pharmacokinetics in SD rats in vivo (intravenous injection and oral administration); design: species or system Sprague Dawley rats; details: single intravenous injection and oral administration; for AUC: read-out: Concentration integral AUC; for half-life: read-out: Half life T1/2 (converted); for bioavailability: oral, read-out: Bioavailability F
Experimental: Objective: To test the pharmacokinetics of compounds in SD rats in vivo.
Sprague Dawley rats (male, 200-300 g, 7-9 weeks old, Shanghai Slack)
The pharmacokinetics profile of the compound in rodent after intravenous injection and oral administrations was tested using a standard protocol. In the assay, the candidate compound was formulated into a clear solution, and was given to the rats through a single intravenous injection and oral administration. The vehicles for the intravenous injection and oral administration were an aqueous hydroxypropyl β-cyclodextrin solution or dimethyl sulfoxide in aqueous PEG400 solution in a proper proportion. The whole blood samples were collected within 24 hours, centrifuged at 3000 g for 15 minutes, and plasma samples were obtained by separating the supernatant. 4 times volume of acetonitrile solution containing an internal standard was added to precipitate proteins. After centrifugation, the supernatant was collected, to which an equal volume of water was added, and further centrifuged to collect the supernatant. The LC-MS/MS method was used to quantitatively analyze the plasma concentration, and the pharmacokinetics parameters, such as peak concentration, peak time, clearance rate, half-life, area under the curve, and bioavailability were calculated.

[2] = male, Sprague-Dawley, rat, plasma, 2 mg/kg, 2 mpk
[3] = male, Sprague-Dawley, rat, plasma, 3 mg/kg, 3 mpk
[4] = male, Sprague-Dawley, rat, plasma, intravenous, 3 mg/kg, 3 mpk, read-out: Clearance

| SMILES | EC50 (S1P1 receptor) | also measured |
| --- | --- | --- |
| COc1ccc(-c2nc(-c3cccc4c3CCC43CC(=O)N(CCO)C3)no2)cc1 (stereo not drawn) [Example 4] | > 100 nM |  |
| Cc1ccc(-c2nc(-c3cccc4c3CCC43CC(=O)N(CCO)C3)no2)cc1 (stereo not drawn) [Example 16] | > 100 nM |  |
| CC(C)Oc1ccc(-c2nc(-c3cccc4c3CCC43COC(=O)N3CCO)no2)cc1C#N (stereo not drawn) [Example 37] | 10 to 100 nM |  |
| N#Cc1ccc(-c2nc(-c3cccc4c3CCC43CC(=O)N(CCO)C3)no2)cc1 (stereo not drawn) [Example 7] | > 100 nM |  |
| CC(C)Oc1ccc(-c2nc(-c3cccc4c3CCC43CC(=O)N(CCO)C3=O)no2)cc1C#N (stereo not drawn) [Example 36] | ≤ 10 nM |  |
| COc1ccccc1-c1nc(-c2cccc3c2CCC32CC(=O)N(CCO)C2)no1 (stereo not drawn) [Example 6] | > 100 nM |  |
| CC(C)Oc1ccc(-c2nc(-c3cccc4c3CCC43CCC(=O)N3CCO)no2)cc1C#N (stereo not drawn) [Example 31] | 10 to 100 nM |  |
| O=C1CC2(CCc3c(-c4noc(-c5ccc(OCC6CC6)cc5)n4)cccc32)CN1CCO (stereo not drawn) [Example 19] | > 100 nM |  |
| O=C1CC2(CCc3c(-c4noc(-c5ccc(OC(F)(F)F)cc5)n4)cccc32)CN1CCO (stereo not drawn) [Example 14] | > 100 nM |  |
| CC(C)Oc1ccc(-c2cnc(-c3cccc4c3CCC43CC(=O)N(CCO)C3)cn2)cc1C#N (stereo not drawn) [Example 45] | ≤ 10 nM |  |
| CC(C)Oc1ccc(-c2nnc(-c3cccc4c3CCC43CC(=O)N(CCO)C3)s2)cc1C#N (stereo not drawn) [Example 38] | ≤ 10 nM |  |
| N#Cc1cccc(-c2nc(-c3cccc4c3CCC43CC(=O)N(CCO)C3)no2)c1 (stereo not drawn) [Example 8] | > 100 nM |  |
| CC(C)Oc1ccc(-c2nc(-c3cccc4c3CCC43CCN(C4CC(C(=O)O)C4)C3)no2)cc1C#N (single isomer, unassigned) [Example 47 Isomer 3] |  | Bioavailability F ([1]; 3 mpk, 3 mg/kg): 48.7%; AUC [1, 3]: 5.66 µM·h; half-life [1, 3]: 3.98 h; clearance [1, 4]: 8.81 mL/min/kg |
| CC(C)Oc1ccc(-c2ccc(-c3cccc4c3CCC43CC(=O)N(CCO)C3)s2)cc1C#N (stereo not drawn) [Example 43] | 10 to 100 nM |  |
| N#Cc1ccccc1-c1nc(-c2cccc3c2CCC32CC(=O)N(CCO)C2)no1 (stereo not drawn) [Example 18] | > 100 nM |  |
| O=C1CC2(CCc3c(-c4noc(-c5ccccc5Cl)n4)cccc32)CN1CCO (stereo not drawn) [Example 3] | > 100 nM |  |

| SMILES | EC50 (S1P1 receptor) | also measured |
| --- | --- | --- |
| O=C1CC2(CCc3c(-c4noc(-c5ccc(Cl)cc5)n4)cccc32)CN1CCO (stereo not drawn) [Example 1] | > 100 nM |  |
| CC(C)Oc1ccc(-c2ncc(-c3cccc4c3CCC43CC(=O)N(CCO)C3)s2)cc1C#N (stereo not drawn) [Example 41] | ≤ 10 nM |  |
| O=C1CC2(CCc3c(-c4noc(-c5ccc(OC(F)F)cc5)n4)cccc32)CN1CCO (stereo not drawn) [Example 15] | > 100 nM |  |
| CC(C)c1ccc(-c2nc(-c3cccc4c3CCC43CC(=O)N(CCO)C3)no2)cc1 (stereo not drawn) [Example 17] | > 100 nM |  |
| CC(C)Oc1ccc(-c2nc(-c3cccc4c3CCC43CCN(CC(=O)O)C3)no2)cc1C#N (stereo not drawn) [Example 48] | ≤ 10 nM |  |
| CC(C)Oc1ccc(-c2nc(-c3cccc4c3CC[C@@H]4NCCO)no2)cc1C#N [Ozanimod, reference compound] |  | AUC [1, 3]: 1.12 µM·h; half-life [1, 3]: 5.24 h; clearance [1, 4]: 46.3 mL/min/kg; bioavailability [1, 3]: 41.6% |
| CC(C)Oc1ccc(-c2nc(-c3cccc4c3CCC43CCN(C4CC(C(=O)O)C4)C3)no2)cc1C#N (stereo not drawn) [Example 47] | ≤ 10 nM |  |
| CC(C)Oc1ccc(-c2nc(-c3cccc4c3CCC43CCC(CO)N3)no2)cc1C#N (stereo not drawn) [Example 32] | 10 to 100 nM |  |
| CC(C)Oc1ccc(-c2nc(-c3cccc4c3CCC43CC(=O)N(CCO)C3)no2)cc1C#N (single isomer, unassigned) [Example 21 isomer 2] |  | Bioavailability F ([1]; 3 mpk, 3 mg/kg): 89.6%; Concentration integral AUC ([1]; 3 mpk, 3 mg/kg): 8.483 µM·h; Half life T1/2 ([1]; 3 mpk, 3 mg/kg): 3.22 h; clearance ([1]; 3 mpk, 3 mg/kg): 11.6 mL/min/kg |
| COc1cccc(-c2nc(-c3cccc4c3CCC43CC(=O)N(CCO)C3)no2)c1 (stereo not drawn) [Example 5] | > 100 nM |  |
| CC(C)Oc1ccc(-c2nc(-c3cccc4c3CCC43CCN(C4CC(C(=O)O)C4)C3)no2)cc1C#N (single isomer, unassigned) [Example 47 Isomer 4] |  | Bioavailability F ([1]; 3 mpk, 3 mg/kg): 89.6%; Concentration integral AUC ([1]; 3 mpk, 3 mg/kg): 8.483 µM·h; Half life T1/2 ([1]; 3 mpk, 3 mg/kg): 3.22 h; clearance ([1]; 3 mpk, 3 mg/kg): 11.6 mL/min/kg |
| CC(C)Oc1ccc(-c2nc(-c3cccc4c3CCC43CC(=O)N(CCO)C3)no2)cc1 (stereo not drawn) [Example 13] | > 100 nM |  |
| O=C1CC2(CCc3c(-c4noc(-c5cccc(Cl)c5)n4)cccc32)CN1CCO (stereo not drawn) [Example 2] | > 100 nM |  |
| CC(C)Oc1ccc(-c2ncc(-c3cccc4c3CCC43CC(=O)N(CCO)C3)cn2)cc1C#N (stereo not drawn) [Example 44] | ≤ 10 nM |  |
| CC(C)Nc1ncc(-c2nc(-c3cccc4c3CCC43CC(=O)N(CCO)C3)no2)cc1Br (stereo not drawn) [Example 20] | 10 to 100 nM |  |

Further lines, with some results ahead:

| EC50 (S1P1 receptor) | SMILES | also measured |
| --- | --- | --- |
| ≤ 10 nM | CC(C)Oc1ccc(-c2nc(-c3cccc4c3CCC43CCC(=O)N(CCO)C3)no2)cc1C#N (stereo not drawn) [Example 34] |  |
| ≤ 10 nM | CC(C)Oc1ccc(-c2nc(-c3cccc4c3CCC43CC(=O)N(CCS(C)(=O)=O)C3)no2)cc1C#N (stereo not drawn) [Example 25] |  |
| ≤ 10 nM | CC(C)Oc1ccc(-c2nc(-c3cccc4c3CCC43CC(=O)N(CCO)C3)no2)cc1C(F)F (stereo not drawn) [Example 9] | AUC [1, 2]: 4.35 µM·h; half-life [1, 2]: 99.3 h; clearance ([1]; male, Sprague-Dawley, rat, plasma, intravenous, 2 mg/kg, 2 mpk, read-out: Clearance): 2.52 mL/min/kg; bioavailability [1, 2]: 89.4% |
| > 100 nM | CC(C)Oc1ccc(-c2nc(-c3cccc4c3CCC43CC(=O)N(CCO)C3)no2)c(C#N)c1 (stereo not drawn) [Example 12] |  |
| 10 to 100 nM | CC(C)Oc1ccc(-c2ncc(-c3cccc4c3CCC43CC(=O)N(CCO)C3)o2)cc1C#N (stereo not drawn) [Example 42] |  |
| ≤ 10 nM | CC(C)Oc1ccc(-c2nc(-c3cccc4c3CCC43CC(=O)N(CCO)C3)no2)cc1C#N (single isomer, unassigned) [Example 21 isomer 1] | AUC [1, 3]: 12.6 µM·h; half-life [1, 3]: 3.02 h; clearance [1, 4]: 8.65 mL/min/kg; bioavailability [1, 3]: 100% |
| 10 to 100 nM | CC(C)Oc1ccc(-c2nc(-c3cccc4c3CCC43CC(=O)N(CCN(C)C)C3)no2)cc1C#N (stereo not drawn) [Example 27] |  |
| 10 to 100 nM | CC(C)Oc1ccc(-c2nsc(-c3cccc4c3CCC43CC(=O)N(CCO)C3)n2)cc1C#N (stereo not drawn) [Example 39] |  |
| ≤ 10 nM | CC(C)Oc1ccc(-c2nc(-c3cccc4c3CCC43CC(=O)N(CCO)C3)no2)cc1Cl (stereo not drawn) [Example 11] |  |
| ≤ 10 nM | CC(C)Oc1ccc(-c2nc(-c3cccc4c3CCC43CCN(CCO)C3)no2)cc1C#N (stereo not drawn) [Example 35] |  |
| ≤ 10 nM | CC(C)Oc1ccc(-c2nc(-c3cccc4c3CCC43CC(=O)N(CCO)C3)no2)cc1Br (stereo not drawn) [Example 22] |  |
| ≤ 10 nM | CC(C)Oc1ccc(-c2nc(-c3cccc4c3CCC43CC(=O)N(CC(=O)N(C)C)C3)no2)cc1C#N (stereo not drawn) [Example 26] |  |
| ≤ 10 nM | CC(C)Oc1ccc(-c2nc(-c3cccc4c3CCC43CC(=O)N(CCCCC(=O)O)C3)no2)cc1C#N (stereo not drawn) [Example 29] |  |
| ≤ 10 nM | CC(C)Oc1ccc(-c2nc(-c3cccc4c3CCC43CC(=O)N(CC(=O)O)C3)no2)cc1C#N (stereo not drawn) [Example 28] |  |
| ≤ 10 nM | CC(C)Oc1ccc(-c2nc(-c3cccc4c3CCC43CC(=O)N(CCO)C3)ns2)cc1C#N (stereo not drawn) [Example 40] |  |
| ≤ 10 nM | CC(C)Oc1ccc(-c2nc(-c3cccc4c3CCC43CC(=O)N(CCO)C3)no2)cc1C#N (stereo not drawn) [Example 21 mixture] |  |
| ≤ 10 nM | CC(C)Oc1ccc(-c2nc(-c3cccc4c3CCC43CC(=O)N(CCO)C3)no2)cc1OC(F)F (stereo not drawn) [Example 10] |  |
| 10 to 100 nM | CC(C)Oc1ccc(-c2nc(-c3cccc4c3CCC43CCN(CCO)C3=O)no2)cc1C#N (stereo not drawn) [Example 30] |  |
| ≤ 10 nM | CC(C)Oc1ccc(-c2nc(-c3cccc4c3CCCC43CC(=O)N(CCO)C3)no2)cc1C#N (stereo not drawn) [Example 33] |  |
| 10 to 100 nM | CC(C)Oc1ccc(-c2nc(-c3cccc4c3CCC43CC(=O)N(CCO)C3)no2)cc1S(C)(=O)=O (stereo not drawn) [Example 23] |  |
| ≤ 10 nM | COCCN1CC2(CCc3c(-c4noc(-c5ccc(OC(C)C)c(C#N)c5)n4)cccc32)CC1=O (stereo not drawn) [Example 24] |  |
